Entries after “also recorded” stand apart in the source; their conditions may differ.
What was measured:
[1] = system: attachment of neutrophils to colonic submucosal venules; settings: inflammatory bowel disease; Anthoni et al. 2006; cited from earlier work
[2] = system: BALF neutrophils in female Syrian hamsters; assay: Animal model of smoking related acute lung injury (ET-1 plus cigarette smoke, BALF neutrophils); format: in vivo, hamster; settings: 500 μg IP 60 minutes before 5 μg ET-1, then cigarette smoke two hours, three days
Experimental: Animal models of smoking related acute lung injury. The Animal Care and Utilization Committee of the College of Pharmacy and Allied Health Professions, St. John's University approved all experimental protocols, and the research was conducted according to the requirements of NIH Guide for the Care and Use of Laboratory Animals (revised 1996).
Female Syrian hamsters, weighing approximately 100 g each, were divided into two groups as follows: Group 1 was treated IP with: 1) 500 μg of HJP272 in 0.5 mL Na2CO3 and 2) 5 μg ET-1 in 0.25 mL PBS 60 minutes later, followed immediately by exposure to cigarette smoke for two hours. This regimen was continued for three days.
Group 2 was treated IP with: 1) 0.5 mL Na2CO3 and 2) […] ET-1 in 0.25 mL PBS 60 minutes later, followed immediately by exposure to cigarette smoke for three consecutive days as per Group 1. The animals were placed in a 70×48×38 cm chamber and passively exposed to cigarette smoke produced by a TE-10 smoking machine (Teague Enterprises, Davis, Calif.) that simultaneously burned two filtered research-grade cigarettes (type 2R4F, University of Kentucky). Smoke from both the filtered and burning ends of the cigarette was collected, and then mixed together with air in a separate chamber, thus simulating second-hand smoke exposure. Each cigarette was puffed once per minute for two seconds at a flow rate of 1.05 LPM, yielding 35 mL of smoke. This cycle was repeated nine times before ejecting the cigarette and loading a new one. Proper flow rate was maintained by a vacuum pump that established negative pressure at the exhaust port. Total smoke particulates averaged 87 mg per cubic meter.
All animals were sacrificed 24 hours after completing the smoke exposure regimen to maximize the neutrophil population in the lung, and the percentage of BALF neutrophils was measured (van der Vaart et al. 2004)

BioXTal ET-A receptor = target: T1, BioXTal ET-A receptor (Homo sapiens, UniProt P25101); assay: In vitro competitive binding assay with [125I]Tyr13-ET-1, ET-A receptor; settings: [125I]ET-1 224 pM; 10 ug receptor; 30 to 32° C., two hours; triplicate; read-out: IC50, inhibition of specific [125I] ET-1 binding to ETA receptor
T1 construct: purchased BioXTal
T1 sequence (P25101 21-427): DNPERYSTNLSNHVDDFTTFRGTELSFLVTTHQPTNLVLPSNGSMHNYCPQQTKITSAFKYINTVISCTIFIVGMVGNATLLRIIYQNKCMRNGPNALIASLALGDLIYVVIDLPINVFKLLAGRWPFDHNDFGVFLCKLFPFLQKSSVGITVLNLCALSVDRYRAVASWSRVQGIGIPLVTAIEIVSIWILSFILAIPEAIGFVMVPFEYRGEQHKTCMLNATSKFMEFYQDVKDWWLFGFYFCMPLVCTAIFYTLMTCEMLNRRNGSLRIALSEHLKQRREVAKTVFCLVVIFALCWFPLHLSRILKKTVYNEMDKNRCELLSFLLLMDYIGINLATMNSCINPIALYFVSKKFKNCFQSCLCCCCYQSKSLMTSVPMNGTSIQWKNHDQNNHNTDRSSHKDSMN
Experimental: (§1) In vitro binding assay. Varying concentrations of HJP272, ranging from 10^3 to 10^8 pM, were incubated with 10 ug of BioXTal ET-A or ET-B receptor and 224 pM [^125I]Tyr13-ET-1 in 50 mM NaH2PO4, 150 mM NaCl, 5 mM EDTA, and 0.1% bovine serum albumin.
(§2) For total binding, radio labeled ET-1 and receptor were incubated without the receptor antagonist. For non-specific binding, 300 nM cold ET-1 was substituted for the antagonist. Assay mixtures were incubated at 30 to 32° C. for two hours and the assays were stopped by the addition of cold buffer. Assay mixtures were then quickly filtered through GF/C Whatman filters and washed with cold assay buffer in a Millipore sampling manifold. Filters were collected and counts per minute of the bound radio labeled ET-1 were read by a Packard Cobra Gamma Counter (Perkin Elmer).
(§3) Percent specific binding was calculated for all data points. Assays containing ET-A receptor were run in triplicate and assays containing the ET-B receptor were run in duplicate.

BioXTal ET-B receptor = target: T2, BioXTal ET-B receptor (Homo sapiens, UniProt P24530); assay: In vitro competitive binding assay with [125I]Tyr13-ET-1, ET-B receptor; settings: selectivity ETA versus ETB; ET-B assays in duplicate
T2 construct: purchased BioXTal
T2 sequence (P24530 27-442): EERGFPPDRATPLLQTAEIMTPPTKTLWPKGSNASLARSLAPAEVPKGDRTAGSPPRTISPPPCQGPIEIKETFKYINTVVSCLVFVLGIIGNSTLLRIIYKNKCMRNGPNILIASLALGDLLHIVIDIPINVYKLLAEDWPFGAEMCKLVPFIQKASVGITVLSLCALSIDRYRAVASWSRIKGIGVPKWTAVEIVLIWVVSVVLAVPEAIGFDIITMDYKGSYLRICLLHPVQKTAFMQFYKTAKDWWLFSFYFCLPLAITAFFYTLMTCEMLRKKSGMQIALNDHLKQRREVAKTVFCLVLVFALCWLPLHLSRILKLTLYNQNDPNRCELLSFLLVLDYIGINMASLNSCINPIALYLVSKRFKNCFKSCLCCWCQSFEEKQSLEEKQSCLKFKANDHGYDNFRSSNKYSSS
Experimental: as §1, §2, §3

[3] = system: LPS-induced (infection-associated) preterm labor and delivery in pregnant C57B1/6 mice; assay: Animal model of preterm birth (LPS-injected timed pregnant mice); format: in vivo, mouse
Experimental: Animal models of preterm birth. The Animal Care and Utilization Committee of the College of Pharmacy and Allied Health Professions, St. John's University approved all experimental protocols, and the research was conducted according to the requirements of NIH Guide for the Care and Use of Laboratory Animals (revised 1996). C57B1/6 mice from Taconic Laboratory were used for all experiments. Animals were housed in plastic cages in a temperature-controlled animal facility with alternating 12:12 hour light-dark cycles, with ad libitum access to food and water.
Nineteen timed pregnant C57B1/6 E15.5 mice were injected with LPS in 0.5 ml PBS at a concentration of 50 mg/kg. These mice were randomly assigned to two groups. Group A mice (n=8) received 50 mg/kg HJP272 dissolved in PBS and Group B mice (n=11) received PBS only.
All treatments were administered by ip injection 10 hours after LPS injection. Mice were continually monitored and the time of delivery of all pups, as well as the number of pups delivered, was recorded. All mice were autopsied at the end of the experiment to confirm pregnancy and to determine the number of pups retained in utero.

Compound	attachment of neutrophils to colonic submucosal venules [1]	effect on the ET-1-induced rise of BALF neutrophils (words) [2]	effect on the ET-1-induced rise of BALF neutrophils (words) ([2]; listed as ETA-RA)	effect on the ET-1-induced rise of BALF neutrophils (words) ([2]; listed as HJP-272)	IC50 (BioXTal ET-A receptor) [nM]	ratio of IC50 for the endothelin B receptor to IC50 for the endothelin A receptor (BioXTal ET-B receptor)	percent of prematurely delivered pups ([3]; E15.5 mice, LPS 50 mg/kg, 50 mg/kg ip 10 hours after LPS, PBS control 39.7) [%]	mice that delivered prematurely ([3]; E15.5 mice, LPS 50 mg/kg, 50 mg/kg ip 10 hours after LPS, control 11 out of 11)	control of premature labor and delivery ([3]; LPS followed by compound versus LPS followed by vehicle)	prevention of premature expulsion of pups ([3]; LPS followed by compound versus LPS followed by vehicle, P<0.0001)	average delivery time (T) ([3]; the six treated mice that delivered, LPS 50 mg/kg, PBS control T10.9+/−0.61, p<0.0001) [h]	craniofacial anomalies in pups ([3]; transient exposure, late in gestation)	melting point [°C]
COc1ccccc1Oc1c(NS(=O)(=O)c2ccc(C(C)(C)C)cc2)nc(-c2ncccn2)nc1OCCO [bosentan]	markedly reduced attachment	–	–	–	–	–	–	–	–	–	–	–	–
CCc1cc2c(cc1Cn1c(C(=O)O)c(Cc3cccc(C(=O)O)c3)c(=O)c3cc(O)ccc31)OCO2 [HJP272, 3-(3-carboxybenzyl)-1-((6-ethylbenzo[d][1,3]dioxol-5-yl)methyl)-6-hydroxy-4-oxo-1,4-dihydroquinoline-2-carboxylic acid]	–	reversed	reversed this effect	reversed	70.1	219.2	30.0	six out of eight	controlled preterm labor and delivery in our mouse model of infection-associated preterm labor very effectively; also recorded: significantly better control of premature delivery	significantly greater prevention of premature expulsion of pups	15.0 ± 1.8	None of the pups in the work presented here demonstrated such abnormalities	206 to 208

Reference: US20090143426A1, “Synthesis of 1,3,6-trisubstituted-2-carboxyquinol-4-ones as selective ET A antagonists and their use as medicaments” (priority 2007, published 2009)
